The record followed here is patent US20230089914A1 (Clearside Biomedical, Inc., priority 2020, published 2023).

One may read the half-life as the time needed for the level to fall by half in the phase considered. For orientation: Cmax means the maximum level reached in the sampled fluid or tissue. Broadly, the solubility is how much of the substance goes into solution per volume. Low values mean a poorly soluble substance, high ones a readily soluble substance.

The nature of one series: in vivo. As to conditions: male, Dutch Belted, rabbit, topical or ocular, 4 mg. The source says:
The animals' eyes were examined by a board certified veterinary ophthalmologist using a slitlamp biomicroscope and an indirect ophthalmoscope. The exams occurred predose and on the indicated study days prior to sacrifice, as applicable. On specified days, at least two animals/time point were euthanized for the collection of blood (for plasma) and ocular tissues (aqueous humor, vitreous humor, retina, and sclera/choroid-RPE).
For the initial study, the animals were acclimated to study conditions for 16 days prior to dose administration. At dosing, the animals weighed 1721 to 1941 g and were 5 months of age. All animals were housed in individual, suspended, stainless steel cages during acclimation and the test period. Certified Hi-Fiber Rabbit Diet #5325 (PMI) was provided. Water was provided fresh daily, ad libitum. Environmental controls for the animal room were set to maintain a temperature of 16 to 22° C. (Deviation), a relative humidity of 50±20% (Deviation), and a 12-hour light/12-hour dark cycle. […]
The dosing formulation was drawn up into a 1-mL luer-lock syringe using a standard 21-gauge, 1-inch needle; any bubbles were expressed, and the standard needle was replaced by a 30-gauge microneedle 700 μm in length. […] Any dosing observations were recorded. […]

Series [1] in a line: Ocular distribution and pharmacokinetics after suprachoroidal injection of CLS-AX, 0.03 or 0.1 mg/eye (second study). Type of series: in vivo, male pigmented Dutch Belted rabbits. As to conditions: for tmax: Retina; for half-life: sclera/choroid-RPE (SCR), SCR; for Cmax: topical or ocular, study day 2.
Series [2] is described as follows: Solubility of the API (product profile). Type of series: physicochemical.

In brackets after ≈: the same amount, converted by molar mass. Bounds are passed on as bounds.

Turning to `CNC(=O)c1ccccc1Sc1ccc2c(/C=C/c3ccccn3)n[nH]c2c1` [Axitinib], the half-life in “in vivo” is 102 days; in series [1] (male, Dutch Belted, rabbit, other: suprachoroidal injection, 0.03 mg/eye) it was 10.7 days; in series [1] (male, Dutch Belted, rabbit, other: suprachoroidal injection, 0.1 mg/eye), 15.8 days. The Cmax in the series “in vivo” (Cmax) turned out to be 857 ng/mL; in series [1] (male, Dutch Belted, rabbit, retina, 0.03 mg/eye), 4480 ng/g; in series [1] (male, Dutch Belted, rabbit, retina, 0.1 mg/eye), 6260 ng/g. Also, the “eyes having quantifiable levels in retina” value is 1 of 4 in series [1] (0.03 mg/eye, days 31 and 61); 1 of 4 in series [1] (0.1 mg/eye, Days 45 through 66). Also, the tmax in series [1] (0.03 mg/eye) and in series [1] (0.1 mg/eye) was 1 days each time. Besides, the concentration at 15 day in series [1] (male, Dutch Belted, rabbit, other: suprachoroidal injection, retina, 0.03 mg/eye, by day 15, essentially below, read-out: mean retina concentrations (limit of quantitation)) was < 16.7 ng/g. In addition, in series [1] (retina, 0.1 vs 0.03 mg/eye), the “mean AUC0-t, higher dose versus lower dose” value was found to be 1.6 fold. Besides, in series [1] (retina, 0.1 vs 0.03 mg/eye), the “mean Cmax, higher dose versus lower dose” value stood at 1.4 fold. Moreover, the “Solubility (solvent)” value in series [2] is “DMSO”. Besides, the solubility in series [2] (in water) was 0.2 µg/mL (≈ 0.517 µM).
